Measurements as given in PMC7559477, “Zinc Binding by Histatin 5 Promotes Fungicidal Membrane Disruption in C. albicans and C. glabrata” (Journal of Fungi, 2020).
Where no end group is shown, it is not given here.

Tests used:
[1] = Peptide solubility assay (Zn2+-induced precipitation from NaPB); format: physicochemical; settings: 15 µM peptide in 10 mM NaPB pH 7.4, 30 min at room temperature (20 °C), centrifuged 20000 x g 10 min, supernatant by NanoDrop A205, triplicate, averaged
Description: Aggregation was quantified by measuring peptide precipitation from NaPB. Molar ratios of [0:0], [0:1], [1:2], [1:1], [2:1], [3:1], and [4:1] ZnSO4 to 15 µM peptide were used and samples were incubated for 30 min at room temperature (20 °C) before centrifugation. Samples were spun at 20000× g for 10 min at room temperature and the protein concentrations of the supernatants were subsequently measured using microvolume spectrophotometry (NanoDrop One, Thermofisher Scientific, Waltham, MA, USA) Data were cleaned using robust regression and outlier removal (ROUT) with Q set to 1%. Cleaned data were baseline corrected by subtracting peptide- and metal- free NaPB (0:0). […] Percent aggregation out of total peptide added was calculated. […] Statistical differences between the peptides at each metal salt titration were calculated using two-way ANOVA with Tukey’s multiple comparison test.
Figure 2 The three Hsts are all soluble at a physiological ratio of Zn^2+ to peptide but differ in relative Zn^2+ affinity. […] Peptide solubility was measured via NanoDrop A205 after removal of insoluble aggregates by centrifugation. […] Absorbance of Zincon at 621 nm was measured as an inverse indicator of relative peptide affinity, as Zincon has a blue color when bound to zinc. […]

[2] = Zinc-binding competition assay with Zincon; settings: competition with Zincon 1:1, 20 µM peptide, 10 mM NaPB pH 7.4, ZnSO4 titration, absorbance at 621 nm; triplicate, averaged
Description: Binding competition assays were carried out utilizing the colorimetric copper and Zn^2+ binding dye Zincon. Peptides (20 µM) were mixed with Zincon at a 1:1 ratio and titrated with increasing equivalents of ZnSO4. Absorbance at 621 nm was measured at each addition of metal salt using a Lambda 25 UV/Vis spectrophotometer (Perkin Elmer, Waltham, MA, USA). Data were curve fit using a one site competition equation.
Figure 2 The three Hsts are all soluble at a physiological ratio of Zn^2+ to peptide but differ in relative Zn^2+ affinity. (A) Percent solubility of 15 µM Hst 5 (red), Hst 5ΔMB (blue), and P113 (green) in 10 mM sodium phosphate buffer pH 7.4 with increasing ratio of Zn^2+ incubated at room temperature for 30 min. Peptide solubility was measured via NanoDrop A205 after removal of insoluble aggregates by centrifugation. (B) Binding competition assay with Zincon and peptides at 20 µM in 10 mM sodium phosphate buffer pH 7.4 to establish relative affinity of Hst 5 (red), Hst 5ΔMB (blue), and P113 (green) for Zn^2+ at increasing molar ratios. Absorbance of Zincon at 621 nm was measured as an inverse indicator of relative peptide affinity, as Zincon has a blue color when bound to zinc. Experiments were performed in triplicate and averaged.

[3] = system: Candida albicans strain SC5314; assay: Candidacidal assay, C. albicans; format: cell-based; settings: 0.44 fmol/cell, 1 Zn2+ to 2 peptides, 1 h at 30 °C, 10 mM NaPB pH 7.4; words = versus peptide alone
Description: (§1) Experiments were carried out with Candida albicans strain SC5314 [41] or Candida glabrata strain Cg931010 [42]. Liquid and solid pre-mixed yeast-peptone-dextrose media was used to grow yeast cells (YPD and YPD-Agar, respectively) (Fisher Scientific, Waltham, MA, USA). All media was prepared in deionized water with 50 µg/ mL supplemented uridine (Sigma Aldrich, St. Louis, MO, USA), and sterilized by autoclave. Metal salt solutions of ZnSO4·7H2O (Fisher Scientific, Waltham, MA, USA) were made in High-performance liquid chromatography (HPLC)-grade water (JT Baker, Phillipsburg, NJ, USA) and used within one day of preparation. […]
(§2) Cells (C. albicans or C. glabrata) were cultured as previously described. […] Significance of differences in killing between Zn^2+ and Zn^2+-free samples were calculated using one-way ANOVA with Sidak’s multiple comparisons test.
(A) Candidacidal assays of C. albicans SC5314 cells with 1 h incubation at 30 °C of Hst 5 (red), Hst 5ΔMB (blue), and P113 (green) at dosages of 0.44, 3.75, 7.5, 15, and 30 fmol/cell in 10 mM sodium phosphate buffer pH 7.4. […] Significance of differences in killing activity were calculated using one way ANOVA with Sidak’s multiple comparisons test. * indicates p ≤ 0.05, ** indicates p ≤ 0.01, **** indicates p ≤ 0.0001.

C. albicans cells = assay: Peptide uptake (cell association) assay; format: cell-based, Candida albicans; settings: 0.44 fmol/cell, 30 °C, up to 20 min, initial binding subtracted
Description: as §1
C. albicans cells were added to pre-incubated peptides (30 min, 20 °C) alone or at a 1 Zn^2+:2 peptide ratio, and additionally to Hst 5 at a 3 Zn^2+:2 peptide ratio, using a dose of 0.44 fmol peptide/cell. After cells were added, samples were vortexed briefly and immediately centrifuged for 2 min at 6000× g at 20 °C, after which 10 µL supernatant was removed to new tubes and stored at 4 °C for quantification. […] Protein concentration in supernatant samples was measured by NanoDrop. […] Significance of differences in uptake rate and binding between zinc added and zinc free samples were calculated using two-way ANOVA with Sidak’s multiple comparisons test. […]

[4] = system: Candida albicans (SC5314); assay: Extracellular ATP quantification (ATP efflux), C. albicans; format: cell-based; settings: 0.88 fmol/cell; for ATP efflux with added Zn2+: 1:2 ZnSO4:peptide, 10 mM NaPB pH 7.4, words = versus peptide alone; for total ATP efflux: peptide alone, 10 mM NaPB pH 7.4, luminescence
Description: (§3) Candida albicans (SC5314) or Candida glabrata (Cg931010) cells were prepared as for peptide uptake assays, with the exception that cells were added to samples at a dosage of 0.88 fmol peptide/cell in a 1:2 ratio of ZnSO4:peptide. After samples were mixed, each was immediately centrifuged for 2 min at 6000× g at room temperature, after which 10 µL supernatant was removed to new tubes and added to 84 µL boiling TE buffer (50 mM Tris pH 7.5, 2 mM EDTA pH 8) (1-min time point). Pelleted cells were resuspended with vortexing. After this, samples were incubated at 30 °C (220 rpm) and removed from incubation for a 10-min time point. Samples in TE buffer were boiled for two more minutes and stored on ice for quantitation. Then, 25µL of each sample were added to 10 µL Staybrite adenosine triphosphate (ATP) assay mix and 65 µL assay buffer (Biovision, Milpitas, CA, USA), and luminescence was immediately measured using a FlexStation 3 plate reader (Molecular Devices, San Jose, CA, USA). Experiments were carried out on at least three separate days. Data were interpolated using a standard curve to determine moles of ATP in each sample. Significant differences between Zn^2+ added and Zn^2+-free samples at each time point were determined using one-way ANOVA and Sidak’s multiple comparisons test.
Figure 5 Zinc induces almost immediate ATP efflux. C. albicans SC5314 bioluminescent ATP efflux assay. Cells were treated at 30 °C with 0.88 fmol/ cell. Hst 5 (red), Hst 5ΔMB (blue), or P113 (green) in 10 mM sodium phosphate buffer pH 7.4 with or without added Zn^2+ at a one to two peptides ratio (hatched). Cells were removed from samples via centrifugation and aliquots of supernatant were taken at 1 min and 10 min time points to measure extracellular ATP by luminescence. Experiments were repeated on at least three separate days and averaged. Significance of differences in ATP efflux calculated using one way ANOVA with Sidak’s multiple comparison test. ** indicates p ≤ 0.01, *** indicates p ≤ 0.001.

[5] = system: Candida glabrata (Cg931010); assay: Extracellular ATP quantification (ATP efflux), C. glabrata; format: cell-based; settings: 0.88 fmol/cell
Description: as §3, with “test. […]” for “test.”

[6] = system: Candida glabrata strain Cg931010; format: cell-based; settings: strain Cg931010, 18 h
Description: as §1, §2
Figure 6 Zinc greatly increases Hst 5 and P113 killing of C. glabrata, and induces almost immediate ATP efflux. […] Cells were removed from samples via centrifugation and aliquots of supernatant were taken at 1 and 10 min time points to measure extracellular ATP by luminescence. […] Significance of differences in killing and ATP efflux were calculated using one way ANOVA with Sidak’s multiple comparison test. * indicates p ≤ 0.05, **** indicates p ≤ 0.0001

QQQAKRHHGYKRKFQQQQQSHRGY [Hst 5ΔMB]
precipitation of peptide ([1]; 1:1 Zn2+:peptide): 14% | precipitation of peptide ([1]; 4:1 Zn2+:peptide): 25% | relative affinity for Zn2+ [2]: lowest affinity | killing with added Zn2+ [3]: did not significantly alter | total uptake with added Zn2+ (C. albicans cells; 1 Zn2+:2 peptide, 10 mM NaPB pH 7.4, words = versus peptide alone): 90 pmol | total uptake (C. albicans cells; peptide alone, 10 mM NaPB pH 7.4, supernatant by NanoDrop, at least three days, averaged): 370 pmol | ATP efflux with added Zn2+ ([4]; 1 min): did not significantly increase | total ATP efflux ([4]; 1 min, at least three days, averaged): 85 pmol | ATP efflux with added Zn2+ ([4]; 10 min at 30 °C): did not significantly increase | total ATP efflux ([4]; 10 min at 30 °C): 257 pmol | ATP efflux total ([5]; 1 min, peptide alone, 10 mM NaPB pH 7.4, luminescence): ≤ 30 pmol | ATP efflux with added Zn2+ ([5]; 10 min, 1:2 Zn2+:peptide, 10 mM NaPB pH 7.4, words = versus 1 min): over 100 pmol

C[C@H](NC(=O)[C@H](Cc1c[nH]cn1)NC(=O)[C@H](CO)NC(=O)[C@@H](N)CC(=O)O)C(=O)N[C@@H](CCCCN)C(=O)N[C@@H](CCCNC(=N)N)C(=O)N[C@@H](Cc1c[nH]cn1)C(=O)N[C@@H](Cc1c[nH]cn1)C(=O)NCC(=O)N[C@@H](Cc1ccc(O)cc1)C(=O)N[C@@H](CCCCN)C(=O)N[C@@H](CCCNC(=N)N)C(=O)N[C@@H](CCCCN)C(=O)N[C@@H](Cc1ccccc1)C(=O)N[C@@H](Cc1c[nH]cn1)C(=O)N[C@@H](CCC(=O)O)C(=O)N[C@@H](CCCCN)C(=O)N[C@@H](Cc1c[nH]cn1)C(=O)N[C@@H](Cc1c[nH]cn1)C(=O)N[C@@H](CO)C(=O)N[C@@H](Cc1c[nH]cn1)C(=O)N[C@@H](CCCNC(=N)N)C(=O)NCC(=O)N[C@@H](Cc1ccc(O)cc1)C(=O)O [Hst 5, Histatin 5]
killing less than in C. albicans under the same conditions [6]: 40%
